From US12319946B2, “Methods for producing modified bacteria for production of nitroaromatics” (priority 2018, dated 2025)
“Also recorded” adds a separate entry of the source.

Tests used:
[1] = tested on: E. coli BL21-GOLD (DE3) carrying Nitrotrp pathways (TB14, BsNOS, GDH); assay type: cell-based, Escherichia coli; conditions: for nitration of fed analog by E. coli-II: 5 mM analog fed to fermentation medium of E. coli-II
[2] = tested on: E. coli BL21 Gold cells expressing TB14, BsNOS and GDH; assay: Whole-cell biotransformation (whole cell nitration system, Example 2/278); assay type: cell-based, Escherichia coli; conditions: TB medium, analogue fed as substrate
Procedure: For analytical analysis, an HPLC column was kept at 40° C., water with 0.1% formic acid was used as solvent A and acetonitrile with 0.1% formic acid was used as solvent B. The column was eluted first with 1% solvent B for 1 min and then with a linear gradient of 1-20% solvent B in 8 min, followed by another linear gradient of 20-99% solvent B in 2 min. The column was further cleaned with 99% solvent B for 2 min and then re-equilibrated with 1% solvent B for 2 min. The flow rate was set as 1 ml/min, and the products were detected at […] with a PDA detector.
E. coli BL21 Gold cells containing pETDuet and pET28b derived plasmids were grown from glycerol stock overnight in 5 mL Luria broth with 0.1 mg/mL ampicillin and 0.05 mg/mL kanamycin (37° C., 250 rpm). The pre-culture was used to inoculate 100 mL of Terrific broth medium (0.1 mg/mL ampicillin and 0.05 mg/mL kanamycin) in a 500 mL flask; this culture was incubated at 37° C., 250 rpm to OD600=0.6-0.8. The cultures were cooled on water-ice mixture and induced with 0.5 mM IPTG, Expression was conducted at 18° C., 250 rpm, for 20 h. For the culture of E. coli BL21 Gold cells containing pACYCDuet and pET28b derived plasmids, 0.05 mg/mL chloramphenicol was used instead of 0.05 mg/mL kanamycin. The cultures were then harvested and resuspended to OD600=30 in test medium, Aliquots of the cell suspension were used in the whole cell transformation. To a test tube was added 5 mL cell suspension, 25 μL 100 mM L-Trp or L-Trp analogues, and 25 μL 100 mM L-Arg when necessary. The mixture was then incubated at different conditions. The reactions were quenched by adding equal volume of methanol and the resulting mixture was aliquoted and transferred to a microcentrifuge tube and centrifuged at 14,000 rpm for 10 minutes. The supernatant was transferred to an HPLC vial and analyzed by LC-MS.

TnaA = target: T1, TnaA (Escherichia coli, UniProt P0A853); assay: TnaA assay (in vitro, recombinant tryptophanase); assay type: biochemical, E. coli; conditions: 0.1 μM purified TnaA, 0.5 mM substrate, 37° C., 10 min
T1 construct: made in house; host or cells: E. coli BL21-GOLD (DE3)
T1 sequence (P0A853 whole entry): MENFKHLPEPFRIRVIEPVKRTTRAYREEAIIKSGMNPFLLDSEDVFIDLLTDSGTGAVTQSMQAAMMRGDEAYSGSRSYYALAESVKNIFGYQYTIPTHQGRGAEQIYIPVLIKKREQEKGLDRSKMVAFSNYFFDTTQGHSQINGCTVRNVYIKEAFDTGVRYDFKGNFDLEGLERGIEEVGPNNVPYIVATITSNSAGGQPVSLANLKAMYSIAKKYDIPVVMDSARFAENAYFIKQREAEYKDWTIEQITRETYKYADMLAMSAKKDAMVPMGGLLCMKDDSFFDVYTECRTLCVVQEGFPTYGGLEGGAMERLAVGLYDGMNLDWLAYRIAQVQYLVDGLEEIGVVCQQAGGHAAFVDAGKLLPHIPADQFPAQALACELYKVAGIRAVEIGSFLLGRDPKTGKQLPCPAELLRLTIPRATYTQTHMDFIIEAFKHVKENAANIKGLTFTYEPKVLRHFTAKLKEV
Procedure: The reactions contained 0.1 μM purified TnaA and 0.5 mM substrate and incubated at 37° C. for 10 min. No 4-nitro indole was produced in the enzyme reaction.
PCR amplicons were analyzed by agarose gel and extracted with GeneJET Gel Extraction Kit (Thermo). Purified PCR products and pET28b were digested with corresponding restriction enzymes, purified and then ligated to create expression constructs. Insert in the construct was sequenced to exclude potential errors introduced during PCR amplification and gene manipulation. Recombinant TnaA was prepared in E. coli BL21-GOLD (DE3). The enzyme assay (0.1 mL) contained 100 mM potassium phosphate buffer (pH 8.3), 0.2 mM pyridoxal 5-phosphate and 0.1 μM purified tnaA. The reaction mixtures were pre-warmed at 37° C. for 5 minutes, and initiated by adding 0.5 mM 1-Trp or Nitrotrp as substrate. After 10 minutes, the reactions were quenched by mixing well with 0.2 mL of methanol. After centrifugation at 14,000 rpm for 30 minutes, the supernatant was subject to HPLC analysis. All experiments were independently repeated at least twice.

| Compound | nitration of fed analog by E. coli-II [1] | nitration of tryptophan analogue by whole cell nitration system [2] | conversion rates in whole cell-based nitration [2] | conversion/decomposition by recombinant TnaA (TnaA) | nitration activity of the strain toward substrate (rank) ([1]; 5 mM analog fed to E. coli-II) |
| --- | --- | --- | --- | --- | --- |
| N[C@@H](Cc1c[nH]c2cccc(F)c12)C(=O)O [Example 4-F-Trp, 4-F-Trp] | nitrated | successfully nitrated | – | – | – |
| Cc1cccc2[nH]cc(C[C@H](N)C(=O)O)c12 [Example 4-Me-Trp, 4-Me-Trp] | nitrated | successfully nitrated | highest conversion rates | – | – |
| N[C@@H](Cc1c[nH]c2cccc([N+](=O)[O-])c12)C(=O)O [Example 4-NO2-L-Trp, 4-NO2-L-Trp] | – | – | – | not able to decompose | – |
| N[C@@H](Cc1c[nH]c2ccc(F)cc12)C(=O)O [Example 5-F-Trp, 5-F-Trp] | nitrated | successfully nitrated | highest conversion rates | – | – |
| Cc1ccc2[nH]cc(C[C@H](N)C(=O)O)c2c1 [Example 5-Me-Trp, 5-Me-Trp] | nitrated | successfully nitrated | highest conversion rates | – | highest nitration activity |
| COc1ccc2[nH]cc(C[C@H](N)C(=O)O)c2c1 [Example 5-MeO-Trp, 5-MeO-Trp] | nitrated | successfully nitrated | – | – | – |
| N[C@@H](Cc1c[nH]c2cc(F)ccc12)C(=O)O [Example 6-F-Trp, 6-F-Trp] | nitrated | successfully nitrated | – | – | – |
| Cc1cccc2c(C[C@H](N)C(=O)O)c[nH]c12 [Example 7-Me-Trp, 7-Me-Trp] | nitrated | successfully nitrated | – | – | – |
| N[C@@H](Cc1c[nH]c2ccccc12)C(=O)O [L-Trp, L-tryptophan] | – | – | – | produced indole | – |
| N[C@@H](Cc1c[nH]c2cccc([N+](=O)[O-])c12)C(=O)O [Nitrotrp] | – | – | – | does not convert; also recorded: not observed | – |
| C[C@](N)(Cc1c[nH]c2ccccc12)C(=O)O [α-Me-Trp] | nitrated | successfully nitrated | – | – | – |
